US10611847B2, “ABCG2 monoclonal antibody and uses thereof” (PEKING UNIVERSITY, priority 2016, dated 2020)

Columns and labels:
Assay type in all cases: cell-based
[1] = system: MCF 7/Flavo (Over-expressing ABCG2); test: Drug sensitization test (MTT); details: 72 hours
From the text: (§1) MCF7 Flavo-resistant strain and A549 cisplatin-resistant strain (A549/cis) were used as the experimental cell line with high ABCG2 expression, and the corresponding non-resistant cells MCF7 and A549 with relatively low ABCG2 expression were used as control cell lines in the drug sensitization test. FTC is a specific inhibitor of ABCG2, so the cell group added with FTC was used as a positive control group; the cell group added with a corresponding volume of DMEM high glucose medium or RPMI-1640 medium was used as a negative control group. […] The ABCG2-PKU1, ABCG2-PKU1-1 and ABCG2-PKU2 antibodies prepared in Example 3, as well as mitoxantrone (MTX) and FTC were added. After 72 hours, MTT test was carried out and the absorbance was measured. […] The ratio of the IC50 of the drug-resistant cells to the IC50 of the original cells was calculated, which was the relative drug resistance. Breast cancer cell MCF7 and Flavopiridol (Flavo)-resistant strain MCF7/Flavo cells, lung cancer A549 cells and cisplatin (Cis)-resistant strain A549/Cis cells were divided into 11 groups in the growth inhibition analysis: […]

[2] = system: A549/cis (Over-expressing ABCG2); test: Drug sensitization test (MTT); details: 72 hours
From the text: as §1

A549 = test: Drug sensitization test (MTT); details: 72 hours
From the text: as §1

MCF 7 = test: Drug sensitization test (MTT); details: 72 hours
From the text: as §1

[3] = system: MCF7, MCF7/ADM, MCF7/FLV1000, MCF7/Mitoxantrone, A549, A549/cis, L02 and L02/Oct4 cells; test: Tumor cell growth inhibition analysis; details: agent alone; d1-d6 (FIG. 8)
Method: (1) Tumor cell MCF7 and the drug-resistant strains MCF7/ADM, MCF7/FLV1000, MCF7/Mitoxantrone obtained and identified in Example 4, A549 and A549/cis, L02 and L02/Oct4 cells were seeded in a 96-well plate, 3000 cells/90 μl/well, 6 replicate wells, incubated at 37° C. overnight.
(2) According to the following Tables 6-1 and 6-2, mitoxantrone, commercial ABCG2 antibody (BXP-21) and the three ABCG2 antibodies ABCG2-PKU1, ABCG2-PKU1-1 and ABCG2-PKU2 obtained in Example 3 were added to the plate. The plate was then incubated in a, 5% CO2 incubator at 37° C. 10 μl of DMSO was added to the well at d1, d2, d3, d4, d5, and d6, and the absorbance was measured using an ELISA instrument after 2 hours.
(3) Inhibitory rate calculation: OD value of drug-treatment—blank OD value/OD value without drug-treatment—blank OD value, a growth inhibition curve was plotted.

SMILES	Relative Drug Resistance ([1]; mitoxantrone alone)	Relative Drug Resistance ([2]; mitoxantrone alone)	Relative Drug Resistance (A549; mitoxantrone alone)	Relative Drug Resistance (MCF 7; mitoxantrone alone)	inhibition of tumor cell growth [3]	Relative Drug Resistance ([1]; mitoxantrone + agent at 5 μM)	Relative Drug Resistance ([2]; mitoxantrone + agent at 5 μM)	Relative Drug Resistance (A549; mitoxantrone + agent at 5 μM)	Relative Drug Resistance (MCF 7; mitoxantrone + agent at 5 μM)
O=C1c2c(O)ccc(O)c2C(=O)c2c(NCCNCCO)ccc(NCCNCCO)c21 [Mitoxantrone, mitoxantrone]	1.00	1.00	1.00	1.00	could inhibit the growth	–	–	–	–
COc1ccc2c3c([nH]c2c1)[C@H](C=C(C)C)N1C(=O)[C@@H]2CCCN2C(=O)[C@@H]1C3 [FTC]	–	–	–	–	–	0.77	0.92	1.13	1.03
